Earlier results on seven compounds are cited in US20020042375A1, “Method of treating cancer” (priority 2000, published 2002).

SMILES strings stand for the structures.

Series [1] deals with LNCaP prostate cancer cells.
In series [2] the test system is prostate cancer cell. The following applies: in vitro.
Series [3] relates to PC-3 prostate cancer cells. The following applies: PC-3 cells.
Series [4] relates to PC-3 cells.
Series [5] deals with LNCaP cells. The following applies: exogenous administration.

Turning to `CS(=O)(=O)Nc1ccc([N+](=O)[O-])cc1OC1CCCCC1` [NS398], the apoptosis entry in series [1] and in series [3] was “induce apoptosis” throughout. Moreover, the “prostate cancer cell apoptosis” value in series [2] is “induce prostate cancer cell apoptosis”.

As to `CC(=O)Oc1ccccc1C(=O)O` [aspirin], the “prostate cancer cell apoptosis” value in series [2] is recorded as “induce prostate cancer cell apoptosis”.

`CCCCC(C)(C)[C@H](O)/C=C/[C@H]1[C@H](O)CC(=O)[C@@H]1C/C=C\CCCC(=O)O` [dimethylprostaglandin E2]: the proliferation in vitro result in series [4] (exogenous administration, PC-3 cells) is on record as “increased proliferation”; in series [5], “increased proliferation”.

`CC(C(=O)O)c1ccc(-c2ccccc2)c(F)c1` (centres unmarked) [flurbiprofen]: in series [4] (in the dimethylprostaglandin E2 model), the PC-3 growth entry is given as “inhibited PC-3 growth”. In addition, in series [2], the “prostate cancer cell apoptosis” value is “induce prostate cancer cell apoptosis”.

As to `COc1ccc2c(c1)c(CC(=O)O)c(C)n2C(=O)c1ccc(Cl)cc1` [indomethacin], in series [2], the “prostate cancer cell apoptosis” value is listed as “induce prostate cancer cell apoptosis”.

As for `CC(C(=O)O)c1cccc(C(=O)c2ccccc2)c1` (centres unmarked) [ketoprofen], the “prostate cancer cell apoptosis” value in series [2] is listed as “induce prostate cancer cell apoptosis”.

Regarding `CN1C(C(=O)Nc2ccccn2)=C(O)c2ccccc2S1(=O)=O` [piroxicam], the “prostate cancer cell apoptosis” value in series [2] was “induce prostate cancer cell apoptosis”.
